Assay in all cases: NCI anticancer screen, dose series, 48 h
Experiment [1] relates to HOP-62.
Experiment [2] deals with 786-0.
Experiment [3] concerns M14.
Experiment [4] relates to Malme-3M.
In experiment [5] the test system is CAKI-1.
In experiment [6] the test system is SF-539.
Experiment [7] deals with K562.
The test system of experiment [8] is OVCAR-5.
Experiment [9] has as its system CCRF-CEM.
For experiment [10], the system named is SNB-75.
Experiment [11] has as its system SK-MEL-28.
The subject of experiment [12] is ACHN.
For experiment [13], the system named is NCI-H522.
Experiment [14] has as its system NCI-H23.
Experiment [15] concerns DU-145.
Experiment [16] has as its system IGROV-1.
In experiment [17] the test system is MDA-N.
For experiment [18], the system named is SK-OV-3.
The subject of experiment [19] is Hs-578T.

The structures appear in SMILES notation.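 Dose response: 5 concentrations. Exposure: 48 h. Format: 96-well plates. Endpoint: linear interpolation; highest concentration if not reached. GI50 marks 50% less growth.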 The source made the active and inactive calls. Rule as the data show it: active = GI50 up to about 1.1 µM and inactive = higher. Some results are limits rather than exact numbers.

Consider `COc1cc(/C=C2\C(=O)N(C(=O)Cc3ccccc3)N=C2C)ccc1O`, for which the GI50 in experiment [1], in experiment [2], in experiment [3], in [4], in experiment [5] and in experiment [6] was > 100 µM (inactive) each time. In addition, the GI50 in experiment [7], in [8], in experiment [9], in experiment [10], in [11] and in experiment [12] was > 100 µM (inactive) each time. For the same compound, the GI50 in experiment [13] and in experiment [14] was > 100 µM (inactive) throughout.

For the compound `C[N+](C)(C)C1=NNC2=Nc3ccccc3SC2=C1`, the GI50 was 22.8 µM (inactive) in experiment [1]; 20.1 µM (inactive) in experiment [2]; 15.7 µM (inactive) in experiment [3]; 19.8 µM (inactive) in experiment [4]; 32.3 µM (inactive) in [5]; 27.6 µM (inactive) in experiment [15]. Besides, the GI50 is 17.9 µM (inactive) in [7]; 17.7 µM (inactive) in experiment [8]; 11.7 µM (inactive) in experiment [9]; 17 µM (inactive) in experiment [16]; 17.8 µM (inactive) in experiment [17]; 19.4 µM (inactive) in experiment [11]. For the same compound, the GI50 in experiment [18] is 23.6 µM (inactive); in experiment [12], 16 µM (inactive); in experiment [13], 15.9 µM (inactive); in [19] it was 30 µM (inactive); in experiment [14], 28.9 µM (inactive).

As to `O=C1CCCc2ccc3c(c21)CC1(Cc2cc4c(cc2C1)CCCC4)C3`, the GI50 is 24.7 µM (inactive) in experiment [1]; 18.1 µM (inactive) in experiment [2]; 16.9 µM (inactive) in experiment [3]; 18.3 µM (inactive) in experiment [4]; 20.9 µM (inactive) in [15]; 20.3 µM (inactive) in experiment [6]. Moreover, the GI50 in [7] was 6.49 µM (inactive); in experiment [8], 27.4 µM (inactive); in [9], 3.94 µM (inactive); in experiment [16] it was 24.7 µM (inactive); in experiment [10], 20.7 µM (inactive); in [11] it was 24.9 µM (inactive). Moreover, the GI50 in experiment [18] was 43.9 µM (inactive); in experiment [12] it was 16.1 µM (inactive); in experiment [13], 17.3 µM (inactive); in [19] it was 30.4 µM (inactive); in [14], 18.2 µM (inactive).

`Cc1ccc(/N=C/C=C(\Nc2ccc(C)cc2)c2ccc3ccccc3c2)cc1`: the GI50 in [1] was 0.912 µM (active); in [2] it was 0.757 µM (active); in experiment [3], 1.13 µM (inactive); in experiment [4], 0.238 µM (active); in [5], 0.45 µM (active); in experiment [15], 1.15 µM (inactive). In addition, the GI50 is 1.21 µM (inactive) in experiment [6]; 0.414 µM (active) in experiment [7]; 1.45 µM (inactive) in experiment [8]; 0.189 µM (active) in experiment [9]; 0.541 µM (active) in [16]; 0.468 µM (active) in experiment [10]. Besides, the GI50 in experiment [11] was 0.488 µM (active); in [18] it was 0.731 µM (active); in [12], 0.671 µM (active); in [13], 2.74 µM (inactive); in experiment [19], 0.753 µM (active); in [14], 0.585 µM (active).

Turning to `CCOC(=O)c1c(N=C(S)Nc2ccc(Cl)cc2)sc2c1CCN(C)C2`, the GI50 in [1] is > 100 µM (inactive); in experiment [2] it was > 100 µM (inactive); in [3], > 100 µM (inactive); in experiment [5], > 100 µM (inactive); in experiment [15], > 100 µM (inactive); in experiment [6], 72.6 µM (inactive). The GI50 in experiment [7] is 61 µM (inactive); in experiment [8], > 100 µM (inactive); in experiment [9], 26.9 µM (inactive); in experiment [16], > 100 µM (inactive); in experiment [17] it was > 100 µM (inactive); in experiment [12] it was > 100 µM (inactive). The GI50 in [19] and in experiment [14] was > 100 µM (inactive) throughout.

For the compound `CC1CC/C(=C\c2ccc(Cl)cc2)c2nc(N)c(C#N)c(-c3ccc(Cl)cc3)c21` (centres undefined), the GI50 is 70.6 µM (inactive) in experiment [1]; > 100 µM (inactive) in experiment [2]; 57.8 µM (inactive) in experiment [3]; 13.4 µM (inactive) in experiment [4]; 21.8 µM (inactive) in experiment [5]; 48.8 µM (inactive) in experiment [6]. In addition, the GI50 in [7] was 31.5 µM (inactive); in experiment [8], > 100 µM (inactive); in experiment [9] it was 23.5 µM (inactive); in experiment [16] it was 62.8 µM (inactive); in [17], 88.1 µM (inactive); in experiment [10] it was 67 µM (inactive). For the same compound, the GI50 was 49.4 µM (inactive) in experiment [11]; > 100 µM (inactive) in experiment [18]; 42.2 µM (inactive) in [12]; 30.3 µM (inactive) in experiment [13]; 30.3 µM (inactive) in experiment [14].

As to `C=C(C(=O)OC)[C@H]1CC/C(C)=C/CC[C@@](C)(O)C=CC[C@@]2(C)O[C@@H]2C1`, the GI50 in experiment [1] was 44.3 µM (inactive); in experiment [2], 17.6 µM (inactive); in experiment [3], 62.8 µM (inactive); in experiment [5] it was 24.1 µM (inactive); in experiment [15], 22.9 µM (inactive); in experiment [6] it was 21.5 µM (inactive). For the same compound, the GI50 in [7] is > 10 µM (inactive); in [8] it was > 100 µM (inactive); in [16], 46.6 µM (inactive); in [17] it was 49.4 µM (inactive); in experiment [10], > 100 µM (inactive); in experiment [11], 10.9 µM (inactive). Moreover, the GI50 in experiment [18] was > 100 µM (inactive); in experiment [12], 36.3 µM (inactive); in experiment [14], 24.1 µM (inactive).

Regarding `Nc1ccc(Oc2ccc(C34CC5C6CC7(c8ccc(Oc9ccc(N)cc9)cc8)CC5C(C3)C(C7)C6C4)cc2)cc1`, the GI50 in [1], in [2], in experiment [3], in experiment [4], in [5] and in [15] was > 100 µM (inactive) throughout. The GI50 in experiment [7], in experiment [8], in [9], in experiment [16], in [17] and in [11] was > 100 µM (inactive) throughout. Moreover, the GI50 in experiment [12], in experiment [13], in experiment [19] and in experiment [14] was > 100 µM (inactive) in each case.

On to `NCCCNc1ccc2c(c1)[n+]([O-])c1ccccc1[n+]2[O-]`, for which the GI50 is 22.7 µM (inactive) in [1]; 29.2 µM (inactive) in experiment [2]; 13.8 µM (inactive) in experiment [3]; 17.4 µM (inactive) in experiment [4]; 27 µM (inactive) in experiment [15]; 20.6 µM (inactive) in experiment [6]. In addition, the GI50 is 26.4 µM (inactive) in experiment [7]; 28.4 µM (inactive) in [8]; 22.4 µM (inactive) in [9]; 12.7 µM (inactive) in [16]; 59.7 µM (inactive) in [11]; 14.2 µM (inactive) in experiment [18]. Further, the GI50 was 21 µM (inactive) in [12], 13.6 µM (inactive) in [13], 18.5 µM (inactive) in experiment [19] and 35.5 µM (inactive) in experiment [14].

On to `O=C1C=C(Nc2cc(Cl)ccc2Cl)c2ccccc2C1=O`, for which the GI50 in experiment [1] is 26.1 µM (inactive); in experiment [2], 34.8 µM (inactive); in experiment [3], 19.9 µM (inactive); in experiment [4], 19.4 µM (inactive); in experiment [5], 32.2 µM (inactive); in [6], 33.3 µM (inactive). Further, the GI50 in [7] was 13.5 µM (inactive); in [8] it was 39 µM (inactive); in [16] it was 64.1 µM (inactive); in experiment [10] it was 25.9 µM (inactive); in experiment [11], 38.6 µM (inactive); in [18], 51.6 µM (inactive). Moreover, the GI50 was 26.1 µM (inactive) in experiment [12] and 20.7 µM (inactive) in [14].

In the case of `O=C1/C(=C/c2ccccc2)N=C(c2ccccc2)N1C1Nc2cc3c(cc2S1)NC(N1C(=O)/C(=C/c2ccccc2)N=C1c1ccccc1)S3` (centres undefined), the GI50 in [1] is 16.9 µM (inactive); in experiment [2], 53.6 µM (inactive); in [3], 9.51 µM (inactive); in experiment [5] it was > 100 µM (inactive); in experiment [15], 46.6 µM (inactive); in experiment [6], > 100 µM (inactive). Besides, the GI50 in experiment [7] is 10 µM (inactive); in experiment [8], 64 µM (inactive); in experiment [9] it was 31.7 µM (inactive); in experiment [16], 6.98 µM (inactive); in experiment [17], 8.61 µM (inactive); in experiment [11], 6.64 µM (inactive). For the same compound, the GI50 in [18] is > 100 µM (inactive); in experiment [12], 29.5 µM (inactive); in experiment [13], 0.0258 µM (active); in [14], 4.9 µM (inactive).

As for `O=C1N[C@@H](COc2ccc(/C=N/c3ccc(CCc4ccc(/N=C/c5ccc(OC[C@@H]6COC(=O)N6)cc5)cc4)cc3)cc2)CO1`, the GI50 in experiment [1], in experiment [2], in experiment [3], in experiment [4], in experiment [5] and in [15] was > 100 µM (inactive) in each case. The GI50 in experiment [7], in [8], in experiment [16], in experiment [17], in experiment [11] and in [18] was > 100 µM (inactive) in each case. For the same compound, the GI50 in experiment [12], in [13] and in experiment [19] was > 100 µM (inactive) each time.

These data come from ChEMBL document CHEMBL1201862, “PubChem BioAssay data set” (2004).
